Assay results taken from US5591757A, “Dihydropyridine composition” (Yamanouchi Pharmaceutical Co., Ltd., priority 1984, dated 1997).
Like-named read-outs stand apart in the source and are kept apart here.

Columns and labels:
[1] = system: mean arterial blood pressure (MBP) and coronary blood flow (Cor. BF); assay: Hemodynamic effects in anesthetized open-chest dogs (i.v.); assay type: in vivo, mongrel dogs; settings: Canis lupus familiaris; for change in vivo at 0.3 mg/kg: 0.3 mg/kg iv, anesthetized dogs; for change in vivo at 0.1 mg/kg: iv
Procedure: Mongrel dogs of either sex were anesthetized with pentobarbital sodium (30 mg/kg iv). The animals were artificially ventilated with room air. The chest was opened at the left 4th intercostal space. Mean arterial blood pressure (MBP), heart rate (HR), left ventricular pressure (LVP), max. dLVP/dt, mean pulmonary arterial blood pressure (MPAP), cardiac output (CO) and coronary blood flow (Cor. BF) were measured. The test compounds were injected into the femoral vein. […] BF from control values induced by intravenous injection of test compounds.

left coronary artery = assay: Coronary vasodilating effects in dogs (intracoronary); assay type: in vivo, mongrel dogs
Procedure: Mongrel dogs of either sex were anesthetized and ventilated as previously described. A thoracotomy was performed at the 4th intercostal space. Following an intravenous injection of heprin (1000 units/kg), blood from the distal end of the cannulated carotid artery was pumped into circumflex branch of the left coronary artery using a servocontrolled peristaltic pump which maintained a constant perfusion pressure of 120 mmHg by means of a pump controller. An electromagnetic flow probe was inserted in the circit to record blood flow through the cannulated coronary artery. The test compounds were administered directly into the rubber tubing connected close to the coronary artery cannula.

dog coronary artery = assay: Effect on 3,4-diaminopyridine (3,4-DAP)-induced rythmic contraction; assay type: cell-based; settings: Canis lupus familiaris, read-out: IC50, 3,4-DAP contraction
Procedure: The ring segments were cannulated with two triangle stainless-steel hooks and suspended vertically in Krebs-Henseleit solution under the same condition described previously. Preparations were set up under a resting tension of 1.0 g and rhythmic contractions were induced by application of 10 mM 3,4-DAP. Test compound was cumulatively added into the medium. IC50 was estimated from dose-response curves (Table 2, column 2).

calcium channels = assay: [^3 H]-nitrendipine binding to rat brain membrane
Beta-adrenoceptor [2] = target: T1, Beta-adrenoceptor (Rattus norvegicus, UniProt P18090); assay: cell-based; settings: isolated rat right atria, (-)-isoproterenol-induced positive chronotropy; read-out: KB (antagonist dissociation constant)
T1 sequence (P18090 whole entry): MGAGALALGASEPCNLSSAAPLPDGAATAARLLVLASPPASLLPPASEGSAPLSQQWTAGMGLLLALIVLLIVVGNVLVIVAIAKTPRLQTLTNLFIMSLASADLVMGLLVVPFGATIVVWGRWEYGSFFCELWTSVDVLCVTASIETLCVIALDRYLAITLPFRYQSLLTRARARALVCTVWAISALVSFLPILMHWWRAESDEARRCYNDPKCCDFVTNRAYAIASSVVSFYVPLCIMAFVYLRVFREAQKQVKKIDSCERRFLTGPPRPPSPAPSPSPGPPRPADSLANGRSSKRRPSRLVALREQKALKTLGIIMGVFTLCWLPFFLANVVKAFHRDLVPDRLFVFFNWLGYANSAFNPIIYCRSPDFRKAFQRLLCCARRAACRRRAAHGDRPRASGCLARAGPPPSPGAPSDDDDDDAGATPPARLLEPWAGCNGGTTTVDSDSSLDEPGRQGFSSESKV
Description: Beta-adrenoceptor blocking effect of test compounds was estimated by antagonism of (-)-isoproterenol-induced positive chronotropy.

rabbit thoracic aorta = assay: Effect on KCl-induced contraction of rabbit aorta; settings: Oryctolagus cuniculus, read-out: IC50, K contraction
Beta-adrenoceptor [3] = target: T1, Beta-adrenoceptor; assay: Beta-adrenoceptor blocking effect in reserpinized rats (isoproterenol chronotropy); assay type: in vivo, male Wistar rats; set-up: The rats were anesthetized with pentobarbital sodium; from tissue; host or cells: heart in the living anesthetized male Wistar rat (reserpine-pretreated, vagotomized); settings: isoproterenol 0.1 μg/kg iv, cumulative iv doses, read-out: Beta-Blocking ED50 (50% blockade of positive chronotropic response to isoproterenol)
Procedure: (§1) The rats were pretreated with reserpine (8 mg/kg ip), 18 hr before experiments. […] The heart rate was measured with a cardiotachometer triggered by the QRS of the ECG (lead II) and recorded on a polygraph. After the Control response to isoproterenol at a dose of 0.1 μg/kg iv was obtained, the test compound was injected iv in increasing doses at 20 min intervals.

Beta-adrenoceptor [4] = target: T1, Beta-adrenoceptor; assay: Intrinsic sympathomimetic activity (ISA) in reserpinized rats; assay type: in vivo, male Wistar rats; set-up: The rats were anesthetized with pentobarbital sodium; from tissue; host or cells: heart in the living anesthetized male Wistar rat (reserpine-pretreated, vagotomized); settings: reserpine-pretreated rats, iv
Procedure: as §1
In this series of experiments, intrinsic sympathomimetic activity (ISA) was also evaluated.

[5] = read-out: percent change of Cor. BF from control
[6] = read-out: percent change of MBP from control
[7] = dog coronary artery, 10 mM 3,4-DAP

| SMILES | change in vivo at 0.3 mg/kg [1, 5] | change in vivo at 0.3 mg/kg [1, 6] | ED100 pap (dose for 100% increase of Cor. BF; maximum response to papaverine 300 μg ia = 100%) (left coronary artery) | Duration of action of coronary vasodilating effect (left coronary artery; intracoronary (ia)) | IC50 (dog coronary artery; [7]) | IC50 (calcium channels) | Ki (calcium channels) | Slope, ^3 H-Nitrendipine binding (calcium channels) | Kb (Beta-adrenoceptor [2]) | IC50 (rabbit thoracic aorta) | ED50 (Beta-adrenoceptor [3]) | ISA (increase in HR) (Beta-adrenoceptor [4]) | change in vivo at 0.1 mg/kg [1, 5] | change in vivo at 0.1 mg/kg [1, 6] | IC50 (dog coronary artery) |
| --- | --- | --- | --- | --- | --- | --- | --- | --- | --- | --- | --- | --- | --- | --- | --- |
| COC(=O)C1=C(C)NC(C)=C(C(=O)OCCCCCCNCC(O)COc2ccccc2)C1c1cccc([N+](=O)[O-])c1.Cl (stereo not shown) [Example 12, 6-(2-hydroxy-3-phenoxy-propylamino)hexyl methyl 2,6-dimethyl-4-(m-nitro-phenyl)-1,4-dihydropyridine-3,5-dicarboxylate hydrochloride] | 45% | -26% | 100 μg ia | > 60 min | 0.019 µM | 0.012 µM | 0.00615 µM | 1.38 | 0.063 µM | 0.033 µM | 0.6 mg/kg | - |  |  |  |
| COC(=O)C1=C(C)NC(C)=C(C(=O)OCCN(C)Cc2ccccc2)C1c1cccc([N+](=O)[O-])c1 (stereo not shown) [Nicardipine, reference compound] |  |  |  |  | 0.0021 µM | 0.0016 µM | 0.0009 µM | 0.90 |  | 0.001 µM |  |  |  |  |  |
| COc1ccc(CCN(C)CCCC(C#N)(c2ccc(OC)c(OC)c2)C(C)C)cc1OC (stereo not shown) [Verapamil, reference compound] |  |  | 8 μg ia |  |  |  |  |  |  | 0.075 µM |  |  | 95% | -23% | 0.126 µM |
